Measurements: patent publication US20110034434A1, “PRODRUGS OF FUSED HETEROCYCLIC INHIBITORS OF D-AMINO ACID OXIDASE” (SEPRACOR INC., priority 2009, published 2011)

Test system: not listed separately
Assay: Hydrolysis rate of test compounds in pH 7.4 and 2.0 aqueous solution
Format: physicochemical
Conditions: 0.05 M sodium phosphate buffer pH 7.4, over 6 hours, HPLC
Experimental: 10 mM DMSO solutions of test compounds were diluted with a 0.05 M sodium phosphate buffer (pH 7.4) or water adjusted with phosphoric acid to pH 2.0, with a final concentration of 0.013 mg/mL. Samples were analyzed over either 2 or 6 hours, by HPLC.
The amount of test compound and the corresponding acid were determined. The rate of conversion of the test compound was calculated based on formation of the corresponding acid and loss of parent.
The rate of hydrolysis of test compounds to 4H-furo[3,2-b]pyrrole-5-carboxylic acid was evaluated in pH 7.4 aqueous solution over 6 hours, and in pH 2.0 aqueous solution over 2 hours, according to General Procedure 14.

| Hydrolysis rate at pH 7.4 | Structure (SMILES) |
| --- | --- |
| No hydrolysis | O=C(OCC1CCCO1)c1cc2occc2[nH]1 (centres unmarked) [compound 10, (tetrahydrofuran-2-yl)methyl 4H-furo[3,2-b]pyrrole-5-carboxylate] |
| No hydrolysis | O=C(OCC(=O)N1CCC1)c1cc2occc2[nH]1 [compound 19, 2-(azetidin-1-yl)-2-oxoethyl 4H-furo[3,2-b]pyrrole-5-carboxylate] |

Same assay, conditions: water adjusted with phosphoric acid to pH 2.0, over 2 hours, HPLC

| Hydrolysis rate at pH 2.0 | Structure (SMILES) |
| --- | --- |
| No hydrolysis | O=C(OCC1CCCO1)c1cc2occc2[nH]1 (centres unmarked) [compound 10, (tetrahydrofuran-2-yl)methyl 4H-furo[3,2-b]pyrrole-5-carboxylate] |
| No hydrolysis | O=C(OCC(=O)N1CCC1)c1cc2occc2[nH]1 [compound 19, 2-(azetidin-1-yl)-2-oxoethyl 4H-furo[3,2-b]pyrrole-5-carboxylate] |

Test system: D-serine
Assay: PK-PD evaluation in rats: D-serine levels in cerebellum after oral dosing
Format: in vivo
Conditions: rat cerebellum, 6 hours after PO dosing, dose normalized to 10 mg/kg of the acid; mean ± spread (n)
Experimental: Rats (Harlan male Sprague) (N=3) were dosed orally with an amount of test compound, suspended in 45% (w/v) hydroxy-β-cyclodextrin vehicle, dose normalized to 10 mg/kg of the corresponding carboxylic acid. Additional male cannulated rats (N=3) were dosed orally with the parent carboxylic acid, suspended in 45% (w/v) hydroxy-β-cyclodextrin vehicle, at 10 mg/kg. Animals were sacrificed at pre-determined time points (e.g., 0.5, 2 and/or 6 hours post administration) with an N=3 at each time point. At sacrifice, trunk blood was collected into tubes containing potassium EDTA, which were then centrifuged to permit isolation of plasma. The cerebellum was dissected from each animal. Plasma and cerebellum samples were stored at −80° C. until samples were analyzed using a SCIEX API2000 or SCIEX API5000 LC/MS/MS. Samples were analyzed for the amount of corresponding parent acid, D-serine, and/or the amount of test compound.
Conversion of test compounds to 4H-furo[3,2-b]pyrrole-5-carboxylic acid (“acid”; 77) in rats was evaluated according to General Procedure 12. 4H-furo[3,2-b]pyrrole-5-carboxylic acid and D-serine levels in plasma and cerebellum were measured. Animals were sacrificed at 6 hours post administration. In Table 6, “[D-serine] cerebellum” refers to D-serine levels, in nmol/g, in the rat cerebellum. In Table 6, “[acid] cerebellum” refers to the concentration, in μM, of the 4H-furo[3,2-b]pyrrole-5-carboxylic acid in the cerebellum. In Table 6, “[acid] plasma” refers to the concentration, in μM, of the 4H-furo[3,2-b]pyrrole-5-carboxylic acid in the plasma. The row labeled “acid”, denotes the data obtained from dosing 4H-furo[3,2-b]pyrrole-5-carboxylic acid. The row labeled “vehicle” denotes the data obtained from dosing vehicle, and the remaining row in the table denote the data obtained from dosing the test compounds.

| Structure (SMILES) | [D-serine] cerebellum |
| --- | --- |
| CCOC(=O)c1cc2occc2n1COCCOC(=O)C(N)C(C)C (stereo in doubt) [compound 68, (S)-ethyl 4-((2-(2-amino-3-methylbutanoyloxy)ethoxy)methyl)-4H-furo[3,2-b]pyrrole-5-carboxylate] | 5 ± 0.4(3) nmol/g |
| CC1(C)OC(=O)c2cc3occc3n21 [compound 2, 11,11-dimethyl-5,10-dioxa-1-azatricyclo[6.3.0.0^2,6]undeca-2(6),3,7-trien-9-one] | 17 ± 1.0(3) nmol/g |
| CC1OC(=O)c2cc3occc3n21 (centres unmarked) [compound 3, 11-methyl-5,10-dioxa-1-azatricyclo[6.3.0.0^2,6]undeca-2(6),3,7-trien-9-one] | 17 ± 1.0(3) nmol/g |
| CCCOC(=O)c1cc2occc2[nH]1 [compound 4, propyl 4H-furo[3,2-b]pyrrole-5-carboxylate] | 20 ± 1.3(3) nmol/g |
| CCCCOC(=O)c1cc2occc2[nH]1 [compound 5, butyl 4H-furo[3,2-b]pyrrole-5-carboxylate] | 18 ± 1.2(3) nmol/g |
| CCCCCCCOC(=O)c1cc2occc2[nH]1 [compound 6, heptyl 4H-furo[3,2-b]pyrrole-5-carboxylate] | 18 ± 0.7(3) nmol/g |
| CC(C)COC(=O)c1cc2occc2[nH]1 [compound 7, isobutyl 4H-furo[3,2-b]pyrrole-5-carboxylate] | 19 ± 1.5(3) nmol/g |
| CC(C)CCCOC(=O)c1cc2occc2[nH]1 [compound 8, 4-methylpentyl 4H-furo[3,2-b]pyrrole-5-carboxylate] | 20 ± 1.5(3) nmol/g |
| O=C(OCc1ccccc1)c1cc2occc2[nH]1 [compound 9, benzyl 4H-furo[3,2-b]pyrrole-5-carboxylate] | 21 ± 0.4(3) nmol/g |
| O=C(OCC1CCCO1)c1cc2occc2[nH]1 (centres unmarked) [compound 10, (tetrahydrofuran-2-yl)methyl 4H-furo[3,2-b]pyrrole-5-carboxylate] | 19 ± 2.0(6) nmol/g |
| O=C(OCC(=O)N1CCC1)c1cc2occc2[nH]1 [compound 19, 2-(azetidin-1-yl)-2-oxoethyl 4H-furo[3,2-b]pyrrole-5-carboxylate] | 17 ± 0.7(3) nmol/g |
| CCN(CC)C(=O)COC(=O)c1cc2occc2[nH]1 [compound 23, 2-(diethylamino)-2-oxoethyl 4H-furo[3,2-b]pyrrole-5-carboxylate] | 18 ± 2.3(3) nmol/g |
| O=C(OCCn1ccnc1)c1cc2occc2[nH]1 [compound 27, 2-(1H-imidazol-1-yl)ethyl 4H-furo[3,2-b]pyrrole-5-carboxylate] | 17 ± 0.6(3) nmol/g |
| O=C(OCn1ccnc1)c1cc2occc2[nH]1 [compound 28, (1H-imidazol-1-yl)methyl 4H-furo[3,2-b]pyrrole-5-carboxylate] | 19 ± 1.9(3) nmol/g |
| CN(C)CCOC(=O)c1cc2occc2[nH]1 [compound 32, 2-(dimethylamino)ethyl 4H-furo[3,2-b]pyrrole-5-carboxylate] | 9 ± 0.7(3) nmol/g |
| CC(=O)OC(C)OC(=O)c1cc2occc2[nH]1 (centres unmarked) [compound 33, 1-acetoxyethyl 4H-furo[3,2-b]pyrrole-5-carboxylate] | 19 ± 1.4(3) nmol/g |
| CCC(=O)OC(C)OC(=O)c1cc2occc2[nH]1 (centres unmarked) [compound 34, 1-(propionyloxy)ethyl 4H-furo[3,2-b]pyrrole-5-carboxylate] | 20 ± 1.7(3) nmol/g |
| CC(C)OC(=O)OC(C)OC(=O)c1cc2occc2[nH]1 (centres unmarked) [compound 36, 1-(isopropoxycarbonyloxy)ethyl 4H-furo[3,2-b]pyrrole-5-carboxylate] | 20 ± 2.9(6) nmol/g |
| CC(OC(=O)OC(C)(C)C)OC(=O)c1cc2occc2[nH]1 (centres unmarked) [compound 37, 1-(tert-butoxycarbonyloxy)ethyl 4H-furo[3,2-b]pyrrole-5-carboxylate] | 18 ± 1.1(3) nmol/g |
| CC(=O)OCOC(=O)c1cc2occc2[nH]1 [compound 38, acetoxymethyl 4H-furo[3,2-b]pyrrole-5-carboxylate] | 19 ± 4.4(4) nmol/g |

| Structure (SMILES) | [D-serine] cerebellum |
| --- | --- |
| CC(=O)OC(OC(=O)c1cc2occc2[nH]1)C(C)C (centres unmarked) [compound 40, 1-acetoxy-2-methylpropyl 4H-furo[3,2-b]pyrrole-5-carboxylate] | 22 ± 2.7(3) nmol/g |
| O=C(OCOC(=O)c1cc2occc2[nH]1)c1cc2occc2[nH]1 [compound 41, methylene bis(4H-furo[3,2-b]pyrrole-5-carboxylate)] | 14 ± 0.2(3) nmol/g |
| CCC(=O)OCOC(=O)c1cc2occc2[nH]1 [compound 42, propionyloxymethyl 4H-furo[3,2-b]pyrrole-5-carboxylate] | 20 ± 1.5(3) nmol/g |
| CCCC(=O)OC(C)OC(=O)c1cc2occc2[nH]1 (centres unmarked) [compound 44, 1-(butyryloxy)ethyl 4H-furo[3,2-b]pyrrole-5-carboxylate] | 21 ± 1.3(3) nmol/g |
| CCC(OC(C)=O)OC(=O)c1cc2occc2[nH]1 (centres unmarked) [compound 45, 1-acetoxypropyl 4H-furo[3,2-b]pyrrole-5-carboxylate] | 22 ± 1.9(3) nmol/g |
| CC(C)C(=O)OCOC(=O)c1cc2occc2[nH]1 [compound 47, isobutyryloxymethyl 4H-furo[3,2-b]pyrrole-5-carboxylate] | 22 ± 3.0(3) nmol/g |
| O=C(OCCOC(=O)c1cc2occc2[nH]1)c1cc2occc2[nH]1 [compound 55, ethane-1,2-diyl bis(4H-furo[3,2-b]pyrrole-5-carboxylate)] | 13 ± 1.1(3) nmol/g |
| NC(=O)c1cc2occc2[nH]1 [compound 56, 4H-furo[3,2-b]pyrrole-5-carboxamide] | 7 ± 0.7(2) nmol/g |
| NC(=O)CNC(=O)c1cc2occc2[nH]1 [compound 57, N-(2-amino-2-oxoethyl)-4H-furo[3,2-b]pyrrole-5-carboxamide] | 5 ± 0.5(3) nmol/g |
| CN1CCN(C(=O)c2cc3occc3[nH]2)CC1 [compound 58, (4H-furo[3,2-b]pyrrol-5-yl)(4-methylpiperazin-1-yl)methanone] | 5 ± 0.3(3) nmol/g |
| CCOC(=O)c1cc2occc2n1COC(=O)c1ccccc1 [compound 59, ethyl 4-(benzoyloxymethyl)-4H-furo[3,2-b]pyrrole-5-carboxylate] | 11 ± 1.9(3) nmol/g |
| O=C(OCn1c(C(=O)O)cc2occc21)c1ccccc1 [compound 60, 4-(benzoyloxymethyl)-4H-furo[3,2-b]pyrrole-5-carboxylic acid] | 13 ± 1.1(3) nmol/g |
| CCOC(=O)c1cc2occc2n1COC(C)=O [compound 64, ethyl 4-(acetoxymethyl)-4H-furo[3,2-b]pyrrole-5-carboxylate] | 14 ± 3.6(3) nmol/g |
| CCOC(=O)c1cc2occc2n1COC(=O)C(C)C [compound 65, ethyl 4-(isobutyryloxymethyl)-4H-furo[3,2-b]pyrrole-5-carboxylate] | 11 ± 2.6(3) nmol/g |
| CC(=O)OCn1c(C(=O)O)cc2occc21 [compound 66, 4-(acetoxymethyl)-4H-furo[3,2-b]pyrrole-5-carboxylic acid] | 12 ± 0.7(3) nmol/g |
| CC(C)C(=O)OCn1c(C(=O)O)cc2occc21 [compound 67, 4-(isobutyryloxymethyl)-4H-furo[3,2-b]pyrrole-5-carboxylic acid] | 14 ± 0.9(3) nmol/g |
| CC(=O)OCOC(=O)c1cc2occc2n1COC(C)=O [compound 71, acetoxymethyl 4-(acetoxymethyl)-4H-furo[3,2-b]pyrrole-5-carboxylate] | 14 ± 0.9(3) nmol/g |
| O=C1OCC(OC(=O)c2cc3occc3[nH]2)O1 (centres unmarked) [compound 73, 2-oxo-1,3-dioxolan-4-yl 4H-furo[3,2-b]pyrrole-5-carboxylate] | 24 ± 2.0(2) nmol/g |
| O=C(OC1OC(=O)c2ccccc21)c1cc2occc2[nH]1 (centres unmarked) [compound 74, 3-oxo-1,3-dihydroisobenzofuran-1-yl 4H-furo[3,2-b]pyrrole-5-carboxylate] | 13 ± 1.2(3) nmol/g |
| O=C(OCCl)c1cc2occc2[nH]1 [compound 76, chloromethyl 4H-furo[3,2-b]pyrrole-5-carboxylate] | 12 ± 1.5(3) nmol/g |
